Assay results: PMC7170507, “Biosynthesis of depsipeptides with a 3-hydroxybenzoate moiety and selective anticancer activities involves a chorismatase” (The Journal of Biological Chemistry, 2020)

Legend:
[1] = tested on: T1, C=C(O[C@@H]1C=C(C(=O)O)C=C[C@H]1O)C(=O)O; assay: purified protein; type: biochemical, Streptomyces conglobatus; details: 50 mM Tris-HCl pH 8.0, 0.5 μM enzyme, 50-300 μM chorismate, 0.5 mM NADH, LDH
T1 construct: catalytic Glu-325

[2] = tested on: HCT-8; assay: cells; set-up: species or system human cancer cell lines; CCK8 cell viability assay, absorbance at 450 nm; details: Homo sapiens, 72 h
Protocol: (§1) Anticancer activities were evaluated by using human lung cancer cells PC9, human colorectal cancer cells Sw620, and human melanoma cells A375. Toxicity study was conducted by using three types of normal cells, 16HBE (an immortalized human bronchial epithelial cells), NCM460 (a normal human colon mucosal epithelial cell line), and HaCaT (a spontaneously immortalized keratinocyte cell line from adult human skin). All the cell lines were obtained from the Shanghai Institute of Cell Biology, Chinese Academy of Sciences. The cell cultivation media (Gibco) were supplemented with 10% fetal bovine serum, 100 units/ml penicillin, and 100 μg/ml streptomycin. The cells were maintained in a humidified atmosphere with 5% CO2 at 37 °C. Half-maximal inhibitory concentration (IC50) was determined by a CCK8 assay (Dojindo, Tokyo, Japan). Briefly, the cells were seeded in 96-well plates at a density of 3 × 10^3 cells/well and incubated for 24 h at 37 °C. Then the cells were treated with various concentrations of compound and incubated for 72 h. Afterward, 10 μl of CCK8 reagent was added to each well before a further incubation for 0.5–4.0 h at 37 °C. Finally, the absorbance of each well in the 96-well plate was measured at 450 nm using microplate reader. Because the 3-FAS moiety has been proposed to be the pharmacophore of anticancer activities in NATs ([3], [11]), we wished to know whether compounds 1–4 with the alternative 3-HBA moiety, instead of 3-FAS, would retain anticancer activities. The carcinoma cell lines of human lung (PC9), colon (Sw620), and melanoma (A375) were firstly selected to evaluate the activities of them, using as positive control the chemotherapeutic drug cisplatin. […] This is consistent with the activities previously shown for unantimycin A, which structurally differs from 1 at the C4 alkyl group and which has shown moderate cytotoxicity (IC50 = ∼10 μM) against human cervix epidermoid carcinoma, promyelocytic leukemia, and sarcoma cell lines ([13]). […] Further work will be required to establish convincingly that the apparently selective anticancer activities of 1–4 are endowed by the absence of binding to the quinone reduction site of the cytochrome bc1 complex, which makes antimycin A lethal to the mitochondrial respiratory chain ([12], [20]). Moreover, the broad-spectrum anticancer activities of 1–4 were evaluated by using six other carcinoma cell lines (Table S9).

[3] = tested on: HT29; assay: cells; set-up: species or system human cancer cell lines; CCK8 cell viability assay, absorbance at 450 nm; details: Homo sapiens, HT-29, 72 h
Protocol: as §1

[4] = tested on: Hela; assay: cells; set-up: species or system human cancer cell lines; CCK8 cell viability assay, absorbance at 450 nm; details: Homo sapiens, 72 h
Protocol: as §1

[5] = tested on: A549; assay: cells; set-up: species or system human cancer cell lines; CCK8 cell viability assay, absorbance at 450 nm; details: Homo sapiens, 72 h
Protocol: as §1

[6] = tested on: SGC7901; assay: cells; set-up: species or system human cancer cell lines; CCK8 cell viability assay, absorbance at 450 nm; details: Homo sapiens, SGC-7901, 72 h
Protocol: as §1

[7] = tested on: HepG2; assay: cells; set-up: species or system human cancer cell lines; CCK8 cell viability assay, absorbance at 450 nm; details: Homo sapiens, 72 h
Protocol: as §1

Compound	Km [1] [µM]	kcat [1] [s⁻¹]	IC50 [2] [µM]	IC50 [3] [µM]	IC50 [4] [µM]	IC50 [5] [µM]	IC50 [6] [µM]	IC50 [7] [µM]
Nat-hyg5 (Streptomyces conglobatus)	54 ± 6	0.084 ± 0.003	–	–	–	–	–	–
CCC(C)C1OC(=O)C(C)(C)C(=O)C(Cc2ccccc2)OC(=O)C(C(C)C)OC(=O)C(NC(=O)c2cccc(O)c2)C(C)OC1=O (centres unmarked) [compound 1, unantimycin B]	–	–	17.9 ± 1.4	19.4 ± 0.1	18.2 ± 0.2	7.7 ± 0.07	11.9 ± 0.1	13.4 ± 0.1
CCC(C)C1OC(=O)C(C)(C)C(O)C(Cc2ccccc2)OC(=O)C(C(C)C)OC(=O)C(NC(=O)c2cccc(O)c2)C(C)OC1=O (centres unmarked) [compound 2, 2]	–	–	9.23 ± 0.16	14.9 ± 0.3	15.3 ± 1.5	2.99 ± 0.02	9.57 ± 0.22	15.2 ± 0.7
CC(C)C1OC(=O)C(NC(=O)c2cccc(O)c2)C(C)OC(=O)C(C(C)C)OC(=O)C(C)(C)C(O)C(Cc2ccccc2)OC1=O (centres unmarked) [compound 4, 4]	–	–	8.95 ± 0.13	17.2 ± 0.8	23.6 ± 0.5	2.97 ± 0.01	10.1 ± 0.3	18.3 ± 0.7
CC(C)C1OC(=O)C(NC(=O)c2cccc(O)c2)C(C)OC(=O)C(C(C)C)OC(=O)C(C)(C)C(=O)C(Cc2ccccc2)OC1=O (centres unmarked) [compound 3, 3]	–	–	10.9 ± 0.8	17.6 ± 0.9	23 ± 0.4	2.32 ± 0.01	6.63 ± 0.17	17.5 ± 0.6
